The kinase profiling compilation of Christmann-Franck et al. (2016)
Several values for one entry are separate records, joined by “and”; a condition that tells them apart may be missing. Equal entries are not always repeated.

Columns and labels:
Test in all cases: radiometric filter-binding kinase assay, Kinase HotSpot
Conditions in all cases: compound 0.5 µM; ATP 10 µM
MELK (human) = MELK (human) (UniProt Q14680)
IKBKE (human) = IKBKE (human) (UniProt Q14164)
LCK (human) = LCK (human) (UniProt P06239)
TSSK2 (human) = TSSK2 (human) (UniProt Q96PF2)
CDK1 CCNA2 (human) = CDK1 CCNA2 (human) (UniProt P06493+P20248)
DSTYK (human) = DSTYK (human) (UniProt Q6XUX3)
HCK (human) = HCK (human) (UniProt P08631)
CDK2 CCNA2 (human) = CDK2 CCNA2 (human) (UniProt P24941+P20248)
CSK (human) = CSK (human) (UniProt P41240)
CSK (human), sequence (P41240 whole entry, looked up): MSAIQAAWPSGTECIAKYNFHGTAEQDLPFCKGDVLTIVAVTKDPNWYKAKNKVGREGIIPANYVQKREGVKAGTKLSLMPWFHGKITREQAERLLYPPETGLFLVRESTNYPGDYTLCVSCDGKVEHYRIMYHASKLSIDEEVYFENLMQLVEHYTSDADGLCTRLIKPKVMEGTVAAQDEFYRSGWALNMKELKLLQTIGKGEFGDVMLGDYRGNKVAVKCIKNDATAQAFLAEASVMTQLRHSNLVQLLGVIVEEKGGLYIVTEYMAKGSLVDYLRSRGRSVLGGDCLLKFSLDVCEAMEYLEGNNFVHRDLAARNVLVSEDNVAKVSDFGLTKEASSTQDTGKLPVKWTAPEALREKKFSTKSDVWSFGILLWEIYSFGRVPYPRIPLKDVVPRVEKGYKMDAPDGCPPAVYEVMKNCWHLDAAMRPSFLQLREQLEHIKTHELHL

CSNK2A2 (human) = CSNK2A2 (human) (UniProt P19784)
ERBB2 (human) = ERBB2 (human) (UniProt P04626)
NEK7 (human) = NEK7 (human) (UniProt Q8TDX7)
NEK7 (human), sequence (Q8TDX7 whole entry, looked up): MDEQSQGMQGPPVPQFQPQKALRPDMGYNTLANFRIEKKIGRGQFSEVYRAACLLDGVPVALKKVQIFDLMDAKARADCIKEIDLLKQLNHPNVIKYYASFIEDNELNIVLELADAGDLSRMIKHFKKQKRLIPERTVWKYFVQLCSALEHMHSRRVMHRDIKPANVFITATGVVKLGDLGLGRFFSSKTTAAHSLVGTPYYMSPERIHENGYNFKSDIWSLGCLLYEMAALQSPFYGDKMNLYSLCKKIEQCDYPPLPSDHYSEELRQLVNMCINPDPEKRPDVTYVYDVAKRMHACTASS

INSR (human) = INSR (human) (UniProt P06213)
RPS6KA2 KD1 KD2 (human) = RPS6KA2 KD1 KD2 (human) (UniProt Q15349)
RPS6KA2 KD1 KD2 (human), sequence (Q15349 whole entry, looked up): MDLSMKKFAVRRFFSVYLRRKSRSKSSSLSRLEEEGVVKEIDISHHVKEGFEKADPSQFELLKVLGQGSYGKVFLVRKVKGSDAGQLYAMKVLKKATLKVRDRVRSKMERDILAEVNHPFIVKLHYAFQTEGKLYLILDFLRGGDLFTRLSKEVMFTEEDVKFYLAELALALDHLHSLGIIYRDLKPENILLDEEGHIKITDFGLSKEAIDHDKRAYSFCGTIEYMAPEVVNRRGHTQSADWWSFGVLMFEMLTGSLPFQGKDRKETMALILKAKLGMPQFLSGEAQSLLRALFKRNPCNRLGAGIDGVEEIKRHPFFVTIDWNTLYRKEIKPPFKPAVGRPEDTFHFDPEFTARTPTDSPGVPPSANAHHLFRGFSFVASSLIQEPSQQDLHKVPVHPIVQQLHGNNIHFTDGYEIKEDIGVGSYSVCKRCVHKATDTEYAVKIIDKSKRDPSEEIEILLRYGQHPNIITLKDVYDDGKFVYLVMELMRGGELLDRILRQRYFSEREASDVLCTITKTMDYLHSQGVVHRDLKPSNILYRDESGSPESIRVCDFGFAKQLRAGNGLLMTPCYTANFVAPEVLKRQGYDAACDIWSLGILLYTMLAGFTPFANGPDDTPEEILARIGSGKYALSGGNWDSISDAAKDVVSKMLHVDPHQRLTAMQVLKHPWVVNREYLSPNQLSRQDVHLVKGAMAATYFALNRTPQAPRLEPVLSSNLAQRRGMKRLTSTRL

AKT2 (human) = AKT2 (human) (UniProt P31751)
NEK3 (human) = NEK3 (human) (UniProt P51956)
CSNK1G3 (human) = CSNK1G3 (human) (UniProt Q9Y6M4)
ROCK1 (human) = ROCK1 (human) (UniProt Q13464)
ROCK1 (human), sequence (Q13464 whole entry, looked up): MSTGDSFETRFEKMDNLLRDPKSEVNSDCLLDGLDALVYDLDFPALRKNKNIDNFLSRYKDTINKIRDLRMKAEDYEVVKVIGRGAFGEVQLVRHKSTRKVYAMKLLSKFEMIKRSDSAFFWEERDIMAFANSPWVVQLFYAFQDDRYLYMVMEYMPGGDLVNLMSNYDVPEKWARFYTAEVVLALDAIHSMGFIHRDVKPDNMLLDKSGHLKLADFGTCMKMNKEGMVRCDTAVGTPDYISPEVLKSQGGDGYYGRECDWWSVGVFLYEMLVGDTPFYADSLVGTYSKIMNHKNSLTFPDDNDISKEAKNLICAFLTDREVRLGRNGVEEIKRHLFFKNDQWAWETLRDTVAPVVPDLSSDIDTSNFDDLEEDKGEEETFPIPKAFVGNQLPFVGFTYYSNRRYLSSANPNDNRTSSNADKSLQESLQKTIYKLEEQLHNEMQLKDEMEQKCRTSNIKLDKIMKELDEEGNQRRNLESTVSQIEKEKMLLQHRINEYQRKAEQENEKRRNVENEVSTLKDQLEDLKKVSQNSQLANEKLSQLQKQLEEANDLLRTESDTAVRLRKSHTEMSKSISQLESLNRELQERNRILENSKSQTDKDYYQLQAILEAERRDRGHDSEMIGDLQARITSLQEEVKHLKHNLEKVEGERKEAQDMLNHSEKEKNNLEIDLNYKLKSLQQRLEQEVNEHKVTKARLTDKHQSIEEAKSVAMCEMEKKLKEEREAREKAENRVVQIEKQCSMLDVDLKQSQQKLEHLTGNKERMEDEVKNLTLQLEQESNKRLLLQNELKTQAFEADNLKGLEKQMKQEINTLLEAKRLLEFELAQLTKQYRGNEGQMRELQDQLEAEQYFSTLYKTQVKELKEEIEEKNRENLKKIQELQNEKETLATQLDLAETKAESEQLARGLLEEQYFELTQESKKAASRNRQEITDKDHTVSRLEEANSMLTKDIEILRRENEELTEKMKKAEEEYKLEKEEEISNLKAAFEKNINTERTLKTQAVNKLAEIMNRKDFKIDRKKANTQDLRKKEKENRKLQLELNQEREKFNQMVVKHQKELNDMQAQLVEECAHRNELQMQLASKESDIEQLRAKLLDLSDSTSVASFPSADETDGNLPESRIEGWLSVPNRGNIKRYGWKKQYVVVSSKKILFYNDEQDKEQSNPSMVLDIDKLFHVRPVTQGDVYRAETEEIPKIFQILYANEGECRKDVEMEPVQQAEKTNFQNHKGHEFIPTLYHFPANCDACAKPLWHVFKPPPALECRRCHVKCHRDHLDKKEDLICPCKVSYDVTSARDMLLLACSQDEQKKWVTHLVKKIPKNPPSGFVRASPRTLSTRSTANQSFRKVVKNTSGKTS

HIPK3 (human) = HIPK3 (human) (UniProt Q9H422)
MAPKAPK2 (human) = MAPKAPK2 (human) (UniProt P49137)
MUSK (human) = MUSK (human) (UniProt O15146)
PAK3 (human) = PAK3 (human) (UniProt O75914)
CLK2 (human) = CLK2 (human) (UniProt P49760)
DMPK (human) = DMPK (human) (UniProt Q09013)
NUAK1 (human) = NUAK1 (human) (UniProt O60285)
NUAK1 (human), sequence (O60285 whole entry, looked up): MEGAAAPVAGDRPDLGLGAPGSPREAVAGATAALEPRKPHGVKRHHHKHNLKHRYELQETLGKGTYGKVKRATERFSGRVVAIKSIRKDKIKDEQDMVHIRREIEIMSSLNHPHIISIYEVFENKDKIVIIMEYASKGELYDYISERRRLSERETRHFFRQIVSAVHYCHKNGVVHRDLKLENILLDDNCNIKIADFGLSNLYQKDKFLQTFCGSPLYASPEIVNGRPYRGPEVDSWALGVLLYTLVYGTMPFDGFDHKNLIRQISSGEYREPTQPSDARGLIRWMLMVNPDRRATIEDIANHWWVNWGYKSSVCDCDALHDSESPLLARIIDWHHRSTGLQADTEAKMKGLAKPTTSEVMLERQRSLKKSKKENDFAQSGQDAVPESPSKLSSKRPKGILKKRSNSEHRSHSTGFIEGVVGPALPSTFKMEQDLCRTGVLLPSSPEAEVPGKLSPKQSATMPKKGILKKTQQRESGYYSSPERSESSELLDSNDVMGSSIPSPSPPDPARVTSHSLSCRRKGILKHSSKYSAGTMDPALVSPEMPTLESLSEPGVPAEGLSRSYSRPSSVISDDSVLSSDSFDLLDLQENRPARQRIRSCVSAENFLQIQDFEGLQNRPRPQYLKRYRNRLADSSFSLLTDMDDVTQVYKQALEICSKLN

MKNK2 (human) = MKNK2 (human) (UniProt Q9HBH9)
NTRK3 (human) = NTRK3 (human) (UniProt Q16288)
NTRK3 (human), sequence (Q16288 whole entry, looked up): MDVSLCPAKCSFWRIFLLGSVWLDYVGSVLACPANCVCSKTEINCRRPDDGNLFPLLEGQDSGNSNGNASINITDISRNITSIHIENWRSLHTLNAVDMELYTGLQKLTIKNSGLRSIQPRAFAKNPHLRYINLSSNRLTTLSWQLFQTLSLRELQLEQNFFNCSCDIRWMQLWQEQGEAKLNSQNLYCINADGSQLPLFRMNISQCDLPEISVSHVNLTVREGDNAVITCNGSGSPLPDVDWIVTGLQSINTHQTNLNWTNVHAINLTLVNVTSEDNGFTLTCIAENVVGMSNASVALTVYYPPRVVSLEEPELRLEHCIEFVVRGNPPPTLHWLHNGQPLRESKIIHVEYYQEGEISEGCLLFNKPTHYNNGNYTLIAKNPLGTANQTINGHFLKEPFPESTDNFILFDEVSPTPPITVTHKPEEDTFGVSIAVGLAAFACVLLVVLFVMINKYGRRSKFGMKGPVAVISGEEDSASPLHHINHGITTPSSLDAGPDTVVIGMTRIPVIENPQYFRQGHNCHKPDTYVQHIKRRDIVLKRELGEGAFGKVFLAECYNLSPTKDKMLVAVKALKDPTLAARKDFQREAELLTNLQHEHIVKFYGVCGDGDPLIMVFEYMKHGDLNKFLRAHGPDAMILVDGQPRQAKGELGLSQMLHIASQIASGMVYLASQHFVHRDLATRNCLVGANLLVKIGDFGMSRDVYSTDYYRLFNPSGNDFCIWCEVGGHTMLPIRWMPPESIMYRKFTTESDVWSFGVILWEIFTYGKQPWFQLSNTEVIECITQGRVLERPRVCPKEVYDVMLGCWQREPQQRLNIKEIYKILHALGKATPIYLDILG

SRC (human) = SRC (human) (UniProt P12931)
PAK4 (human) = PAK4 (human) (UniProt O96013)
TBK1 (human) = TBK1 (human) (UniProt Q9UHD2)
BRSK2 (human) = BRSK2 (human) (UniProt Q8IWQ3)
TSSK1B (human) = TSSK1B (human) (UniProt Q9BXA7)
MAP3K11 (human) = MAP3K11 (human) (UniProt Q16584)
VRK1 (human) = VRK1 (human) (UniProt Q99986)
PRKCB2 (human) = PRKCB2 (human) (UniProt P05771)
PLK2 (human) = PLK2 (human) (UniProt Q9NYY3)
MAPKAPK3 (human) = MAPKAPK3 (human) (UniProt Q16644)
DYRK3 (human) = DYRK3 (human) (UniProt O43781)
PASK (human) = PASK (human) (UniProt Q96RG2)
EPHA3 (human) = EPHA3 (human) (UniProt P29320)
LYN (human) = LYN (human) (UniProt P07948)
MINK1 (human) = MINK1 (human) (UniProt Q8N4C8)

IKBKE (human), sequence (Q14164 whole entry, looked up): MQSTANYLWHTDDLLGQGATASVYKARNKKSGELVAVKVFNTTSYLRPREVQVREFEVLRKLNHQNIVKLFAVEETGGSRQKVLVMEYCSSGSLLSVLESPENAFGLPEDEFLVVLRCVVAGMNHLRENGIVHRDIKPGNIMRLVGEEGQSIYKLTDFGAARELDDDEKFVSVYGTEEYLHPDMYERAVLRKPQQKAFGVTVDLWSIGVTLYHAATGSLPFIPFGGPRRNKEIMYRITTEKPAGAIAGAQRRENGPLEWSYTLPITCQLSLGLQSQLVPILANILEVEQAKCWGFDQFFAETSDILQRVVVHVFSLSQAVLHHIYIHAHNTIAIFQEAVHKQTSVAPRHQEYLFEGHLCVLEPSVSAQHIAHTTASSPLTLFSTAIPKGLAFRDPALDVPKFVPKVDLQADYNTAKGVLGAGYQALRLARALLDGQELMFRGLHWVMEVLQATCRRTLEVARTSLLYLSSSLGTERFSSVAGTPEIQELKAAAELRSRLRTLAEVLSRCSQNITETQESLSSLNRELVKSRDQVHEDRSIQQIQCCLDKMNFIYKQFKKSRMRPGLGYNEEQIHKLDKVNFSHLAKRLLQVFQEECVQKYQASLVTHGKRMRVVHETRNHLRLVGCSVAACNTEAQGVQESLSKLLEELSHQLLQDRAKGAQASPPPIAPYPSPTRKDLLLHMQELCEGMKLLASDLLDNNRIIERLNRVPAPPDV

Compound: CN(C)C[C@H]1CCn2c(c(C3=C(c4cn(C)c5ccccc45)C(=O)NC3=O)c3ccccc32)C1
- residual activity (MELK (human)): 96.4%
- residual activity (IKBKE (human)): 78.8%
- residual activity (LCK (human)): 96.5%
- residual activity (TSSK2 (human)): 97.1%
- residual activity (CDK1 CCNA2 (human)): 67.8%
- residual activity (DSTYK (human)): 89.4%
- residual activity (HCK (human)): 95.3%
- residual activity (CDK2 CCNA2 (human)): 76.2%
- residual activity (CSK (human)): 104%
- residual activity (CSNK2A2 (human)): 92.4%
- residual activity (ERBB2 (human)): 95.9%
- residual activity (NEK7 (human)): 100%
- residual activity (INSR (human)): 88%
- residual activity (RPS6KA2 KD1 KD2 (human)): 3.57%
- residual activity (AKT2 (human)): 92.6%
- residual activity (NEK3 (human)): 99.4%
- residual activity (CSNK1G3 (human)): 104%
- residual activity (ROCK1 (human)): 106%
- residual activity (HIPK3 (human)): 111%
- residual activity (MAPKAPK2 (human)): 102%
- residual activity (MUSK (human)): 85.6%
- residual activity (PAK3 (human)): 102%
- residual activity (CLK2 (human)): 85.9%
- residual activity (DMPK (human)): 106%
- residual activity (NUAK1 (human)): 90.9%
- residual activity (MKNK2 (human)): 85.8%
- residual activity (NTRK3 (human)): 75%
- residual activity (SRC (human)): 101%
- residual activity (PAK4 (human)): 104%
- residual activity (TBK1 (human)): 91.4%
- residual activity (BRSK2 (human)): 102%
- residual activity (TSSK1B (human)): 104%
- residual activity (MAP3K11 (human)): 95.2%
- residual activity (VRK1 (human)): 105%
- residual activity (PRKCB2 (human)): 2.29%
- residual activity (PLK2 (human)): 99.9%
- residual activity (MAPKAPK3 (human)): 97.9%
- residual activity (DYRK3 (human)): 102%
- residual activity (PASK (human)): 93%
- residual activity (EPHA3 (human)): 99.2%
- residual activity (LYN (human)): 100% and 98.3%
- residual activity (MINK1 (human)): 97.8%

Compound: O=C(O)/C=C/c1cc(Br)c(Br)c(Br)c1Br
- residual activity (MELK (human)): 91%
- residual activity (IKBKE (human)): 96.8%
- residual activity (LCK (human)): 99.3%
- residual activity (TSSK2 (human)): 98.1%
- residual activity (CDK1 CCNA2 (human)): 88.6%
- residual activity (DSTYK (human)): 98.2%
- residual activity (HCK (human)): 99.9%
- residual activity (CDK2 CCNA2 (human)): 85.6%
- residual activity (CSK (human)): 103%
- residual activity (CSNK2A2 (human)): 17%
- residual activity (ERBB2 (human)): 95.4%
- residual activity (NEK7 (human)): 98%
- residual activity (INSR (human)): 98.6%
- residual activity (RPS6KA2 KD1 KD2 (human)): 75.8%
- residual activity (AKT2 (human)): 97.5%
- residual activity (NEK3 (human)): 83.5%
- residual activity (CSNK1G3 (human)): 92.1%
- residual activity (ROCK1 (human)): 97.6%
- residual activity (HIPK3 (human)): 96.7%
- residual activity (MAPKAPK2 (human)): 91.5%
- residual activity (MUSK (human)): 53.6%
- residual activity (PAK3 (human)): 100%
- residual activity (CLK2 (human)): 85%
- residual activity (DMPK (human)): 103%
- residual activity (NUAK1 (human)): 87.6%
- residual activity (MKNK2 (human)): 53.8%
- residual activity (NTRK3 (human)): 90.6%
- residual activity (SRC (human)): 88.8%
- residual activity (PAK4 (human)): 104%
- residual activity (TBK1 (human)): 91.4%
- residual activity (BRSK2 (human)): 91.1%
- residual activity (TSSK1B (human)): 79.2%
- residual activity (MAP3K11 (human)): 96.3%
- residual activity (VRK1 (human)): 89.8%
- residual activity (PRKCB2 (human)): 84.7%
- residual activity (PLK2 (human)): 51.5%
- residual activity (MAPKAPK3 (human)): 86.3%
- residual activity (DYRK3 (human)): 100%
- residual activity (PASK (human)): 24.8%
- residual activity (EPHA3 (human)): 92.3%
- residual activity (LYN (human)): 102% and 99.3%
- residual activity (MINK1 (human)): 96%

Compound: COc1cc2ncc(-c3ccccc3)nc2cc1OC
- residual activity (MELK (human)): 88.9%
- residual activity (IKBKE (human)): 98.9%
- residual activity (LCK (human)): 93.5%
- residual activity (TSSK2 (human)): 85.7%
- residual activity (CDK1 CCNA2 (human)): 94.8%
- residual activity (DSTYK (human)): 82.7%
- residual activity (HCK (human)): 96.9%
- residual activity (CDK2 CCNA2 (human)): 92.9%
- residual activity (CSK (human)): 107%
- residual activity (CSNK2A2 (human)): 98.3%
- residual activity (ERBB2 (human)): 116%
- residual activity (NEK7 (human)): 102%
- residual activity (INSR (human)): 89.1%
- residual activity (RPS6KA2 KD1 KD2 (human)): 85.4%
- residual activity (AKT2 (human)): 86.7%
- residual activity (NEK3 (human)): 90.5%
- residual activity (CSNK1G3 (human)): 104%
- residual activity (ROCK1 (human)): 95.5%
- residual activity (HIPK3 (human)): 97.7%
- residual activity (MAPKAPK2 (human)): 85.9%
- residual activity (MUSK (human)): 95.9%
- residual activity (PAK3 (human)): 94.7%
- residual activity (CLK2 (human)): 87.4%
- residual activity (DMPK (human)): 103%
- residual activity (NUAK1 (human)): 85.6%
- residual activity (MKNK2 (human)): 86.3%
- residual activity (NTRK3 (human)): 89.1%
- residual activity (SRC (human)): 96.1%
- residual activity (PAK4 (human)): 75.9%
- residual activity (TBK1 (human)): 87.2%
- residual activity (BRSK2 (human)): 103%
- residual activity (TSSK1B (human)): 94.5%
- residual activity (MAP3K11 (human)): 86.8%
- residual activity (VRK1 (human)): 106%
- residual activity (PRKCB2 (human)): 88.8%
- residual activity (MAPKAPK3 (human)): 86.7%
- residual activity (DYRK3 (human)): 95.4%
- residual activity (PASK (human)): 98.9%
- residual activity (EPHA3 (human)): 86.8%
- residual activity (LYN (human)): 90.4% and 96.9%
- residual activity (MINK1 (human)): 93.5%

Compound: O=C1Cc2c([nH]c3ccc(Br)cc23)-c2ccccc2N1
- residual activity (MELK (human)): 74.8%
- residual activity (IKBKE (human)): 89.8%
- residual activity (TSSK2 (human)): 99.3%
- residual activity (CDK1 CCNA2 (human)): 88.5%
- residual activity (DSTYK (human)): 98.6%
- residual activity (HCK (human)): 85.5%
- residual activity (CDK2 CCNA2 (human)): 37.4%
- residual activity (CSK (human)): 88%
- residual activity (CSNK2A2 (human)): 74.6%
- residual activity (ERBB2 (human)): 103%
- residual activity (NEK7 (human)): 94.3%
- residual activity (INSR (human)): 101%
- residual activity (RPS6KA2 KD1 KD2 (human)): 94.9%
- residual activity (AKT2 (human)): 104%
- residual activity (NEK3 (human)): 96.2%
- residual activity (CSNK1G3 (human)): 103%
- residual activity (ROCK1 (human)): 96.1%
- residual activity (HIPK3 (human)): 109%
- residual activity (MAPKAPK2 (human)): 101%
- residual activity (MUSK (human)): 87.6%
- residual activity (PAK3 (human)): 96.6%
- residual activity (CLK2 (human)): 95.7%
- residual activity (DMPK (human)): 110%
- residual activity (NUAK1 (human)): 14.6%
- residual activity (MKNK2 (human)): 102%
- residual activity (NTRK3 (human)): 70.7%
- residual activity (SRC (human)): 71.4%
- residual activity (PAK4 (human)): 92.2%
- residual activity (TBK1 (human)): 93%
- residual activity (BRSK2 (human)): 62.7%
- residual activity (TSSK1B (human)): 80.4%
- residual activity (MAP3K11 (human)): 49.4%
- residual activity (VRK1 (human)): 87.3%
- residual activity (PRKCB2 (human)): 102%
- residual activity (PLK2 (human)): 99.1%
- residual activity (MAPKAPK3 (human)): 100%
- residual activity (DYRK3 (human)): 113%
- residual activity (PASK (human)): 98%
- residual activity (EPHA3 (human)): 96%
- residual activity (LYN (human)): 67.2% and 75.4%
- residual activity (MINK1 (human)): 29.6%
